The text below walks through data of PubChem BioAssay AID220 (DTP/NCI, 2004).

Values joined by “and” are separate entries in the source; they are usually repeats but may differ in a detail not shown here. Equal entries are not always repeated. Inconclusive results are not listed.

In this experiment the test system is CD8F1 mice, subcutaneous mammary adenocarcinoma, T/C%. The experiment can be described thus: NCI In Vivo Anticancer Drug Screen. Data for tumor model Mammary Adenocarcinoma CD8F1 (subcutaneous) in CD8F1. Particulars: higher = larger tumour. In a few lines:
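Compound-treated versus vehicle-treated mice with transplantable tumors; survival or tumor size compared as T/C.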

The mark [1] stands for this setting: endpoint: median tumor weight change, dose: 250.0 mg/kg/injection, schedule: Q01DX001 (ip), vehicle: saline with Tween-80.
Setting [2] is: endpoint: median tumor weight change, dose: 500.0 mg/kg/injection, schedule: Q01DX001 (ip), vehicle: saline with Tween-80.
Setting [3] is: endpoint: median tumor weight (est.), dose: 12.5 mg/kg/injection, schedule: Q07DX005 (ip), vehicle: saline with Tween-80.
The mark [4] stands for this setting: endpoint: median tumor weight (est.), dose: 25.0 mg/kg/injection, schedule: Q07DX005 (ip), vehicle: saline with Tween-80.
Where [5] appears, read: endpoint: median tumor weight (est.), dose: 50.0 mg/kg/injection, schedule: Q07DX005 (ip), vehicle: saline with Tween-80.
Setting [6] is: endpoint: median tumor weight (est.), dose: 100.0 mg/kg/injection, schedule: Q07DX005 (ip), vehicle: saline with Tween-80.
Where [7] appears, read: endpoint: median tumor weight (est.), dose: 200.0 mg/kg/injection, schedule: Q07DX005 (ip), vehicle: saline with Tween-80.
[8] abbreviates: endpoint: median tumor weight (est.), dose: 0.5 mg/kg/injection, schedule: Q07DX005 (ip), vehicle: Klucel (hydroxypropylcellulose) (HPC).
[9] abbreviates: endpoint: median tumor weight (est.), dose: 1.0 mg/kg/injection, schedule: Q07DX005 (ip), vehicle: Klucel (hydroxypropylcellulose) (HPC).

As for `Cc1ccc(S(=O)(=O)NC(=O)OC23COCN2COC3)cc1`, the T/C is 170 % of control (endpoint: median tumor weight change, dose: 125.0 mg/kg/injection, schedule: Q01DX001 (ip), vehicle: water); 111 % of control under setting [1]; 90 % of control under setting [2]; 162 % of control (endpoint: median tumor weight change, dose: 500.0 mg/kg/injection, schedule: Q01DX001 (ip), vehicle: water); 222 % of control (endpoint: median tumor weight change, dose: 1000.0 mg/kg/injection, schedule: Q01DX001 (ip), vehicle: water); 74 % of control (endpoint: median tumor weight change, dose: 2000.0 mg/kg/injection, schedule: Q01DX001 (ip), vehicle: saline with Tween-80). The T/C (endpoint: median tumor weight change, dose: 2000.0 mg/kg/injection, schedule: Q01DX001 (ip), vehicle: water) is 184 % of control.
On to `O=C(O)CCCCCCCC(=O)O`, for which the T/C (endpoint: median tumor weight change, dose: 225.0 mg/kg/injection, schedule: Q01DX001 (ip), vehicle: distilled water + Tween-80) was 122 % of control and the T/C (endpoint: median tumor weight change, dose: 450.0 mg/kg/injection, schedule: Q01DX001 (ip), vehicle: distilled water + Tween-80) is 82 % of control.
As to `C[C@]12CC[C@H]3[C@@H](CCC4=C[C@@H](OC5OCC(OC6OC(CO)C(O)C(O)C6O)C(O)C5O)CC[C@@]43C=O)[C@@]1(O)CCC2C1=CC(=O)OC1` (some centres not stated), the T/C by setting is: (endpoint: median tumor weight (est.), dose: 0.62 mg/kg/injection, schedule: Q07DX005 (ip), vehicle: Klucel (hydroxypropylcellulose) (HPC)) 63 % of control; (endpoint: median tumor weight (est.), dose: 1.25 mg/kg/injection, schedule: Q07DX005 (ip), vehicle: Klucel (hydroxypropylcellulose) (HPC)) 85 % of control and 89 % of control; (endpoint: median tumor weight (est.), dose: 10.0 mg/kg/injection, schedule: Q07DX005 (ip), vehicle: Klucel (hydroxypropylcellulose) (HPC)) 93 % of control and 108 % of control; (endpoint: median tumor weight (est.), dose: 20.0 mg/kg/injection, schedule: Q07DX005 (ip), vehicle: Klucel (hydroxypropylcellulose) (HPC)) 106 % of control; (endpoint: median tumor weight (est.), dose: 40.0 mg/kg/injection, schedule: Q07DX005 (ip), vehicle: Klucel (hydroxypropylcellulose) (HPC)) 93 % of control.
Consider `CCCCCCCC(=O)N/N=C(\CO)[C@]1(O)Cc2c(O)c3c(c(O)c2[C@@H](OC2CC(N)C(O)C(C)O2)C1)C(=O)c1c(OC)cccc1C3=O` (some centres not stated), for which the T/C was 76 % of control (endpoint: median tumor weight (est.), dose: 1.5 mg/kg/injection, schedule: Q07DX005 (ip), vehicle: saline); 110 % of control (endpoint: median tumor weight (est.), dose: 3.0 mg/kg/injection, schedule: Q07DX005 (ip), vehicle: saline); 37 % of control (endpoint: median tumor weight (est.), dose: 6.0 mg/kg/injection, schedule: Q07DX005 (ip), vehicle: saline); 4 % of control (endpoint: median tumor weight (est.), dose: 12.0 mg/kg/injection, schedule: Q07DX005 (ip), vehicle: saline).
Consider `NC(=S)N/N=C/c1ccc(OC(=O)COc2ccc(Cl)cc2)cn1`, for which the T/C is 100 % of control (endpoint: mean tumor weight, dose: 25.0 mg/kg/injection, schedule: Q07DX008 (ip), vehicle: saline); 50 % of control (endpoint: mean tumor weight, dose: 50.0 mg/kg/injection, schedule: Q07DX008 (ip), vehicle: saline); 64 % of control (endpoint: mean tumor weight, dose: 100.0 mg/kg/injection, schedule: Q07DX008 (ip), vehicle: saline); 60 % of control (endpoint: mean tumor weight, dose: 200.0 mg/kg/injection, schedule: Q07DX008 (ip), vehicle: saline); 105 % of control (endpoint: mean tumor weight, dose: 400.0 mg/kg/injection, schedule: Q07DX008 (ip), vehicle: saline); 52 % of control under setting [3]. For the same compound, the T/C by setting is: under setting [4], 167 % of control; under setting [5], 79 % of control; under setting [6], 114 % of control; under setting [7], 82 % of control; (endpoint: median tumor weight (est.), dose: 400.0 mg/kg/injection, schedule: Q07DX005 (ip), vehicle: saline with Tween-80) 119 % of control.
Turning to `CC[C@]1(O)C[C@H](OC2CC(N(C)C)C(OC3CC(O)C(O)C(C)O3)C(C)O2)c2c(cc3c(c2O)C(=O)c2c(O)ccc(O)c2C3=O)[C@H]1C(=O)OC` (some centres not stated), the T/C was 170 % of control under setting [8]; 204 % of control under setting [9]; 63 % of control (endpoint: median tumor weight (est.), dose: 4.0 mg/kg/injection, schedule: Q07DX005 (ip), vehicle: Klucel (hydroxypropylcellulose) (HPC)).
Regarding `CN(N=O)C(=O)N[C@@H](C=O)[C@@H](O)[C@H](O)[C@H](O)CO`, the T/C reads like this: (endpoint: median tumor weight (est.), dose: 16.0 mg/kg/injection, schedule: Q07DX005 (ip), vehicle: Klucel (hydroxypropylcellulose) (HPC)) 90 % of control; (endpoint: median tumor weight (est.), dose: 16.0 mg/kg/injection, schedule: Q07DX005 (ip), vehicle: other) 101 % of control and 109 % of control; (endpoint: median tumor weight (est.), dose: 32.0 mg/kg/injection, schedule: Q07DX005 (ip), vehicle: Klucel (hydroxypropylcellulose) (HPC)) 98 % of control; (endpoint: median tumor weight (est.), dose: 50.0 mg/kg/injection, schedule: Q07DX005 (ip), vehicle: citric acid) 98 % of control; (endpoint: median tumor weight (est.), dose: 64.0 mg/kg/injection, schedule: Q07DX005 (ip), vehicle: Klucel (hydroxypropylcellulose) (HPC)) 95 % of control; (endpoint: median tumor weight (est.), dose: 64.0 mg/kg/injection, schedule: Q07DX005 (ip), vehicle: other) 115 % of control. The T/C by setting is: (endpoint: median tumor weight (est.), dose: 100.0 mg/kg/injection, schedule: Q07DX005 (ip), vehicle: citric acid) 76 % of control; (endpoint: median tumor weight (est.), dose: 128.0 mg/kg/injection, schedule: Q07DX005 (ip), vehicle: other) 87 % of control; (endpoint: median tumor weight (est.), dose: 200.0 mg/kg/injection, schedule: Q07DX005 (ip), vehicle: citric acid) 84 % of control; (endpoint: median tumor weight (est.), dose: 256.0 mg/kg/injection, schedule: Q07DX005 (ip), vehicle: other) 39 % of control; (endpoint: median tumor weight (est.), dose: 400.0 mg/kg/injection, schedule: Q07DX005 (ip), vehicle: citric acid) 48 % of control.
Take `COC1/C=C/C=C(/C)Cc2cc(O)c(Cl)c(c2)N(C)C(=O)CC(OC(=O)C(C)C)C2(C)OC2C(C)C2CC1(O)NC(=O)O2` (configuration not stated): the T/C was 49 % of control (endpoint: median tumor weight change, dose: 0.62 mg/kg/injection, schedule: Q01DX001 (ip), vehicle: saline + alcohol); 34 % of control and 54 % of control (endpoint: median tumor weight change, dose: 1.25 mg/kg/injection, schedule: Q01DX001 (ip), vehicle: saline + alcohol); 50 % of control and 70 % of control (endpoint: median tumor weight change, dose: 2.5 mg/kg/injection, schedule: Q01DX001 (ip), vehicle: saline + alcohol); 54 % of control and 55 % of control (endpoint: median tumor weight change, dose: 5.0 mg/kg/injection, schedule: Q01DX001 (ip), vehicle: saline + alcohol); 35 % of control and 60 % of control (endpoint: median tumor weight change, dose: 10.0 mg/kg/injection, schedule: Q01DX001 (ip), vehicle: saline + alcohol); 48 % of control (endpoint: median tumor weight change, dose: 20.0 mg/kg/injection, schedule: Q01DX001 (ip), vehicle: saline + alcohol).
For the compound `CN(C)c1ccc2c(N(C)C)cc(N(C)C)nc2c1`, the T/C by setting is: (endpoint: median tumor weight (est.), dose: 3.12 mg/kg/injection, schedule: Q07DX005 (ip), vehicle: Klucel (hydroxypropylcellulose) (HPC)) 58 % of control; (endpoint: median tumor weight (est.), dose: 6.25 mg/kg/injection, schedule: Q07DX005 (ip), vehicle: Klucel (hydroxypropylcellulose) (HPC)) 78 % of control.
`CCN(CC)CCNc1ccc(C)c2sc3ccccc3c(=O)c12`: the T/C by setting is: (endpoint: median tumor weight (est.), dose: 12.5 mg/kg/injection, schedule: Q07DX005 (ip), vehicle: saline) 156 % of control; (endpoint: median tumor weight (est.), dose: 25.0 mg/kg/injection, schedule: Q07DX005 (ip), vehicle: saline) 198 % of control; (endpoint: median tumor weight (est.), dose: 50.0 mg/kg/injection, schedule: Q07DX005 (ip), vehicle: saline) 166 % of control; (endpoint: median tumor weight (est.), dose: 100.0 mg/kg/injection, schedule: Q07DX005 (ip), vehicle: saline) 76 % of control; (endpoint: median tumor weight (est.), dose: 200.0 mg/kg/injection, schedule: Q07DX005 (ip), vehicle: saline) 42 % of control.
Take `C[n+]1c(/C=C\C=C\N2CCCCC2)sc2ccccc21`: the T/C is 114 % of control under setting [8] and 108 % of control under setting [9].
For `O=C(Nc1cccc2c(OC(=O)C(Cl)Cl)c(N=Nc3ccc(S(=O)(=O)Nc4nccs4)cc3)cc(N=Nc3ccc(S(=O)(=O)Nc4nccs4)cc3)c12)C(Cl)Cl` (tested in a mixture with another compound), the T/C runs as follows: under setting [1], 106 % of control; under setting [2], 124 % of control; (endpoint: median tumor weight change, dose: 1000.0 mg/kg/injection, schedule: Q01DX001 (ip), vehicle: saline with Tween-80) 37 % of control.
Take `CS(=O)(=O)c1ncc(Br)cn1`: the T/C (endpoint: median tumor weight (est.), dose: 6.25 mg/kg/injection, schedule: Q07DX005 (ip), vehicle: saline with Tween-80) is 242 % of control; the T/C under setting [3] was 405 % of control; the T/C under setting [4] was 222 % of control; the T/C under setting [5] was 286 % of control; the T/C under setting [6] is 348 % of control; the T/C under setting [7] is 311 % of control.
